Organism: Rattus norvegicus
Assay: Open TG-GATES - Regimen: Single
Format: toxicity, organism-based, Sprague-Dawley
Parameters: regimen Single, gender Male, age 6 weeks
Conditions: in vivo, po, 15 mg/kg, route gavage, dose level Low; for APTT / Bas / Eos / Fbg / Hb / Ht / Lym / MCH / MCHC / MCV / Mono / Neu / PT / Plat / RBC / Ret / WBC: tissue Blood; for KIDNEY_L / KIDNEY_R / KIDNEY_TOTAL: tissue Kidney; for LIVER: tissue Liver; for A/G / ALP / ALT / AST / BUN / CRE / Ca / Cl / DBIL / GLC / IP / K / LDH / Na / PL / RALB / TBIL / TC / TG / TP / gamma-GTP: tissue Plasma

For CN(C)CCC=C1c2ccccc2CCc2ccccc21 [AMITRIPTYLINE], the TERMINAL_BW (3 h) was 194.5 g, the APTT (3 h) was 16.2 s and the Bas (3 h) was 0%. The Eos (3 h) was 1%, the Fbg (3 h) was 267.4 mg/dL and the Hb (3 h) was 12.8 g/dL. It also gave a Ht (3 h) of 39.3%, a Lym (3 h) of 73% and an MCH (3 h) of 21.2 pg. The MCHC (3 h) was 32.6%, the MCV (3 h) was 65 fL and the Mono (3 h) was 3%. For the same compound, the Neu (3 h) was 22.2%, the PT (3 h) was 16.2 s and the Plat (3 h) was 114.1 x10_4/uL. The RBC (3 h) was 604.8 x10_4/ul, the Ret (3 h) was 8.7% and the WBC (3 h) was 91.4 x10_2/uL. It also gave a KIDNEY_L (3 h) of 0.8 g, a KIDNEY_R (3 h) of 0.8 g and a KIDNEY_TOTAL (3 h) of 1.6 g. The LIVER (3 h) was 8.5 g, the A/G (3 h) was 0.8 and the ALP (3 h) was 1536.8 IU/L. For the same compound, the ALT (3 h) was 54.2 IU/L, the AST (3 h) was 74.4 IU/L and the BUN (3 h) was 10 mg/dL. The CRE (3 h) was 0.2 mg/dL, the Ca (3 h) was 11.1 mg/dL and the Cl (3 h) was 106.2 meq/L. The DBIL (3 h) was 0.01 mg/dL, the GLC (3 h) was 181.6 mg/dL and the IP (3 h) was 8.8 mg/dL. It also gave a K (3 h) of 4.3 meq/L, an LDH (3 h) of 83.8 IU/L and a Na (3 h) of 143 meq/L. For the same compound, the PL (3 h) was 142 mg/dL, the RALB (3 h) was 2.5 g/dL and the TBIL (3 h) was 0.058 mg/dL. The TC (3 h) was 80.2 mg/dL, the TG (3 h) was 52 mg/dL and the TP (3 h) was 5.4 g/dL. For the same compound, the gamma-GTP (3 h) was 1 IU/L, the TERMINAL_BW (6 h) was 191.5 g and the APTT (6 h) was 16 s. It also gave a Bas (6 h) of 0%, an Eos (6 h) of 1% and a Fbg (6 h) of 277.4 mg/dL. It also gave a Hb (6 h) of 13 g/dL, a Ht (6 h) of 39.9% and a Lym (6 h) of 77.4%. The MCH (6 h) was 21.1 pg, the MCHC (6 h) was 32.6% and the MCV (6 h) was 64.6 fL. For the same compound, the Mono (6 h) was 2.6%, the Neu (6 h) was 18.4% and the PT (6 h) was 15.9 s. For the same compound, the Plat (6 h) was 120 x10_4/uL, the RBC (6 h) was 617.8 x10_4/ul and the Ret (6 h) was 9.4%. The WBC (6 h) was 75 x10_2/uL, the KIDNEY_L (6 h) was 0.8 g and the KIDNEY_R (6 h) was 0.8 g. For the same compound, the KIDNEY_TOTAL (6 h) was 1.6 g, the LIVER (6 h) was 7.8 g and the A/G (6 h) was 0.8. It also gave an ALP (6 h) of 1444.2 IU/L, an ALT (6 h) of 46.4 IU/L and an AST (6 h) of 77.6 IU/L. For the same compound, the BUN (6 h) was 8.8 mg/dL, the CRE (6 h) was 0.2 mg/dL and the Ca (6 h) was 10.6 mg/dL. The Cl (6 h) was 106.6 meq/L, the DBIL (6 h) was 0.014 mg/dL and the GLC (6 h) was 175.8 mg/dL. For the same compound, the IP (6 h) was 9.2 mg/dL, the K (6 h) was 4.2 meq/L and the LDH (6 h) was 58.4 IU/L. The Na (6 h) was 143 meq/L, the PL (6 h) was 144.4 mg/dL and the RALB (6 h) was 2.4 g/dL. The TBIL (6 h) was 0.07 mg/dL, the TC (6 h) was 84.4 mg/dL and the TG (6 h) was 43.8 mg/dL. The TP (6 h) was 5.3 g/dL, the gamma-GTP (6 h) was 1 IU/L and the TERMINAL_BW (9 h) was 192 g. For the same compound, the APTT (9 h) was 16.6 s, the Bas (9 h) was 0% and the Eos (9 h) was 0.8%. The Fbg (9 h) was 262.6 mg/dL, the Hb (9 h) was 12.8 g/dL and the Ht (9 h) was 39.3%. For the same compound, the Lym (9 h) was 67.4%, the MCH (9 h) was 21.5 pg and the MCHC (9 h) was 32.6%. The MCV (9 h) was 65.8 fL, the Mono (9 h) was 2.4% and the Neu (9 h) was 29%. It also gave a PT (9 h) of 15.7 s, a Plat (9 h) of 117.7 x10_4/uL and an RBC (9 h) of 597 x10_4/ul. For the same compound, the Ret (9 h) was 9.3%, the WBC (9 h) was 87.8 x10_2/uL and the KIDNEY_L (9 h) was 0.9 g. For the same compound, the KIDNEY_R (9 h) was 0.9 g, the KIDNEY_TOTAL (9 h) was 1.7 g and the LIVER (9 h) was 7.4 g. The A/G (9 h) was 0.9, the ALP (9 h) was 1309.6 IU/L and the ALT (9 h) was 44.6 IU/L. The AST (9 h) was 71.2 IU/L, the BUN (9 h) was 8.4 mg/dL and the CRE (9 h) was 0.2 mg/dL. The Ca (9 h) was 10.7 mg/dL, the Cl (9 h) was 106.6 meq/L and the DBIL (9 h) was 0.006 mg/dL. It also gave a GLC (9 h) of 165.2 mg/dL, an IP (9 h) of 10.4 mg/dL and a K (9 h) of 3.9 meq/L. It also gave an LDH (9 h) of 69.2 IU/L, a Na (9 h) of 142.8 meq/L and a PL (9 h) of 140.4 mg/dL. It also gave an RALB (9 h) of 2.5 g/dL, a TBIL (9 h) of 0.062 mg/dL and a TC (9 h) of 78.6 mg/dL. The TG (9 h) was 33.2 mg/dL, the TP (9 h) was 5.4 g/dL and the gamma-GTP (9 h) was 1 IU/L. It also gave a TERMINAL_BW (24 h) of 206.4 g, an APTT (24 h) of 16 s and a Bas (24 h) of 0%. It also gave an Eos (24 h) of 1%, a Fbg (24 h) of 259.2 mg/dL and a Hb (24 h) of 12.8 g/dL. The Ht (24 h) was 38.8%, the Lym (24 h) was 77.8% and the MCH (24 h) was 21.6 pg. It also gave an MCHC (24 h) of 32.9%, an MCV (24 h) of 65.5 fL and a Mono (24 h) of 3%. The Neu (24 h) was 17.4%, the PT (24 h) was 16.4 s and the Plat (24 h) was 112.7 x10_4/uL. For the same compound, the RBC (24 h) was 592.4 x10_4/ul, the Ret (24 h) was 8.1% and the WBC (24 h) was 89.3 x10_2/uL. It also gave a KIDNEY_L (24 h) of 0.9 g, a KIDNEY_R (24 h) of 0.9 g and a KIDNEY_TOTAL (24 h) of 1.8 g. It also gave an LIVER (24 h) of 9.4 g, an A/G (24 h) of 0.8 and an ALP (24 h) of 1812.6 IU/L. For the same compound, the ALT (24 h) was 52.4 IU/L, the AST (24 h) was 78.6 IU/L and the BUN (24 h) was 14 mg/dL. The CRE (24 h) was 0.2 mg/dL, the Ca (24 h) was 10.9 mg/dL and the Cl (24 h) was 107 meq/L. The DBIL (24 h) was 0.018 mg/dL, the GLC (24 h) was 179.2 mg/dL and the IP (24 h) was 7.3 mg/dL. For the same compound, the K (24 h) was 4.2 meq/L, the LDH (24 h) was 74.2 IU/L and the Na (24 h) was 143 meq/L. The PL (24 h) was 146.8 mg/dL, the RALB (24 h) was 2.6 g/dL and the TBIL (24 h) was 0.056 mg/dL. The TC (24 h) was 77.2 mg/dL, the TG (24 h) was 82.2 mg/dL and the TP (24 h) was 5.6 g/dL. The gamma-GTP (24 h) was 1 IU/L.
